Data: ChEMBL document CHEMBL1201862, “PubChem BioAssay data set” (2004)
Active and inactive are the calls of the source.

Columns and labels:
[1] = target: Heat shock protein HSP 90-alpha (Homo sapiens, UniProt P07900); assay type: functional, organism-based
[2] = HEp-2 cell cytotoxicity, dose response, cytotoxicity control for RSV inhibitor project, HTS (AID 2410); assay type: functional; details: human respiratory syncytial virus
[3] = target: T1, Probable nicotinate-nucleotide adenylyltransferase (Staphylococcus aureus (strain N315), UniProt P65502); assay type: functional, Staphylococcus aureus subsp. aureus N315;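 as to IC50 Mean: confirmatory dose-response retesting of NadD inhibitor hits first found in an ultra-high-throughput screen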
Vero = Vero cell cytotoxicity, cytotoxicity control for flavivirus capping enzyme inhibitors (AID 588742); assay type: functional; details: Chlorocebus sabaeus
[4] = target: T2, Calpain-2 catalytic subunit (Sus scrofa, UniProt P43367); test: pig calpain II inhibitor potency, dose response, biochemical, fluorogenic peptide substrate (AID 1420); assay type: functional
T2 sequence (P43367 whole entry): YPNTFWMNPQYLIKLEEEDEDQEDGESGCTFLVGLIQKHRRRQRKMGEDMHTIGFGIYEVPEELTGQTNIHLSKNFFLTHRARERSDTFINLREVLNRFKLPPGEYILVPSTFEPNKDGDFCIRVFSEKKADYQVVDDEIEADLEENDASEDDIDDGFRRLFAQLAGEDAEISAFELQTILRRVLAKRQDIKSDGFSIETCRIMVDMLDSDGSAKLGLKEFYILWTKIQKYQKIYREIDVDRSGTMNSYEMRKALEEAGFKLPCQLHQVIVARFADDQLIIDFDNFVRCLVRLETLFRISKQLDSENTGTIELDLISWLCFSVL

[5] = target: T1, Probable nicotinate-nucleotide adenylyltransferase; assay type: functional, Staphylococcus aureus subsp. aureus N315; details: read-out: IC50_Mean
[6] = CRF-BP/CRF-R2 complex antagonists, dose response, cell-based, uHTS hits, 384-well (AID 651639); assay type: functional, Homo sapiens; details: read-out: IC50_Mean
[7] = target: T3, Corticotropin-releasing factor receptor 2/Corticotropin-releasing factor-binding protein (Homo sapiens, UniProt P24387+Q13324); test: activators of CRF receptor 2 with binding protein – uHTS hits, confirmation (AID 602473); assay type: functional; details: read-out: EC50_Mean
T3 sequence (Q13324 whole entry): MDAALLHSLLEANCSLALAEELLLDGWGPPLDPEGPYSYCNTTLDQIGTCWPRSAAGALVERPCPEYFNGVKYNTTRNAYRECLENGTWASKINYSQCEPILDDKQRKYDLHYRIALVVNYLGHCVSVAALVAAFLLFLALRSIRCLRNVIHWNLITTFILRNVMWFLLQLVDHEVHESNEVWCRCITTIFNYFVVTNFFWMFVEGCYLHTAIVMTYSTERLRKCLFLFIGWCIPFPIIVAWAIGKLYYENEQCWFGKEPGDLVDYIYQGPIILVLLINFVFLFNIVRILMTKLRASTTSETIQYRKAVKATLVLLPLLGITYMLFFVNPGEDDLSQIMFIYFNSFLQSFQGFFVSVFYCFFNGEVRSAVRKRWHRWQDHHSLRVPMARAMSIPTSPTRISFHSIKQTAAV
T3 sequence (P24387 whole entry): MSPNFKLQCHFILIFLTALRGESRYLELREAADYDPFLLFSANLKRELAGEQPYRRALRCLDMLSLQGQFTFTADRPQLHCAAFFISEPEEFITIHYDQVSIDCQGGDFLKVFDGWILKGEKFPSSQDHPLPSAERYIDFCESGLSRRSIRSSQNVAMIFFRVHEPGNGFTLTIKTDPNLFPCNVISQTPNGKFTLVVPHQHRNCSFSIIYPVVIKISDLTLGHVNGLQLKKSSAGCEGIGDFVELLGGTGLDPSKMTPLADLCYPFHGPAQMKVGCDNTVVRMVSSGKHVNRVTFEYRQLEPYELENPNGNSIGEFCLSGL

[8] = target: T3, Corticotropin-releasing factor receptor 2/Corticotropin-releasing factor-binding protein; test: Dose Response confirmation of uHTS hits for small molecule antagonists of the CRF-binding protein and CRF-R2 receptor complex.; assay type: functional; details: read-out: IC50_Mean
[9] = inhibitors of firefly luciferase expression or activity, dose response, H4 neuroglioma cells, luminescence (AID 1990); assay type: functional, cell-based
[10] = target: T4, Heat shock factor protein 1 (Mus musculus, UniProt P38532); test: inhibition of MG132-induced HSE-luciferase signal, confirmation, cell-based, NIH3T3, luminescence, dose retest (AID 2382); assay type: functional;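 also: NIH3T3 fibroblasts with HSF1-driven luciferase reporter stressed by proteasome inhibitor MG132; luminescence from HSF1-driven luciferase expression after 8 hours of MG132 stress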
T4 sequence (P38532 whole entry): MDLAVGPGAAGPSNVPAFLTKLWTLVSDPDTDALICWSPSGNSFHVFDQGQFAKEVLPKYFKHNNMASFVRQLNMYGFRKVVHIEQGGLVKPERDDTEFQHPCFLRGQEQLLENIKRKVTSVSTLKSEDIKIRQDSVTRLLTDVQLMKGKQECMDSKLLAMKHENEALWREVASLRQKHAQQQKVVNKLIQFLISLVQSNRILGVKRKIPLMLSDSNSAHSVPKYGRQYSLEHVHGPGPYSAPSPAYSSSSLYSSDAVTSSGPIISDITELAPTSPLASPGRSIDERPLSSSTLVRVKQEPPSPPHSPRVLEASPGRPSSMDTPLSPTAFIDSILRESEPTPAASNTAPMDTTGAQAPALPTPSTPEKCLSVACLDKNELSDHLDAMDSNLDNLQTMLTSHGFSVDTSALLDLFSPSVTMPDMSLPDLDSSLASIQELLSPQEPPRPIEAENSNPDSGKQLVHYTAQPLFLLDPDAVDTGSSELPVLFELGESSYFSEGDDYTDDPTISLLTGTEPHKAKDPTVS

HEK293 = test: inhibitors of LMP1-driven NF-kB reporter, dose response, cell-based, HEK293, luciferase, cherry-pick (AID 588343); assay type: functional; details: Homo sapiens
[11] = inhibitors of SNCA 5'UTR-driven reporter translation, confirmation, H4 neuroglioma cells, luminescence (AID 1988); assay type: functional, cell-based
[12] = Luminescence Cell-Based Dose Response HTS to Identify Inhibitors of 5'UTR Stem-Loop Driven Prion Protein mRNA Translation in H4 Neuroglioblastoma Cells. [Related pubchem assays: 1827 (Project Summary), 1813 (Primary HTS)]; assay type: functional
[13] = inhibitors of Vif binding to APOBEC3G peptide, primary screen, biochemical, TR-FRET, GST-Vif 1-94, biotin-A3G peptide, dose response retest (AID 1117319); assay type: functional;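 also: TR-FRET signal of purified GST-Vif binding a biotinylated A3G peptide; inhibitors lower the FRET signal by blocking Vif and A3G binding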
[14] = target: T5, DNA repair protein RAD52 homolog (Homo sapiens, UniProt P43351); assay type: functional, biochemical
T5 sequence (P43351 whole entry): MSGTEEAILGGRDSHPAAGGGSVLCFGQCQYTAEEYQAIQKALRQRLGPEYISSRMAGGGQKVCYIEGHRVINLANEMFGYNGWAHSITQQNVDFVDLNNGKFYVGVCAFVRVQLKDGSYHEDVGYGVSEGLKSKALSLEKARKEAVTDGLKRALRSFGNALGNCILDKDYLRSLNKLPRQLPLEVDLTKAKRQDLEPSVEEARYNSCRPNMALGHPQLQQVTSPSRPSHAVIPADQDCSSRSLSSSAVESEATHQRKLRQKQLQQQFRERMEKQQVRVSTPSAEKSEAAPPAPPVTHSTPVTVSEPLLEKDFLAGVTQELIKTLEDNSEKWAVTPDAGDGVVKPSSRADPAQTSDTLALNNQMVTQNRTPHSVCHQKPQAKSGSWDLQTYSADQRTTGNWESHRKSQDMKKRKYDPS

H9c2 = test: cells; assay type: functional, cell-based; details: Rattus norvegicus, H9c2, Myocardium
[15] = target: T6, Rac GTPase-activating protein 1 (Homo sapiens, UniProt Q9H0H5); test: MgcRacGAP GTPase-activating activity inhibitors, confirmation, biochemical, ADP Hunter fluorescence, primary and confirmatory (AID 624330); assay type: functional
T6 sequence (Q9H0H5 whole entry): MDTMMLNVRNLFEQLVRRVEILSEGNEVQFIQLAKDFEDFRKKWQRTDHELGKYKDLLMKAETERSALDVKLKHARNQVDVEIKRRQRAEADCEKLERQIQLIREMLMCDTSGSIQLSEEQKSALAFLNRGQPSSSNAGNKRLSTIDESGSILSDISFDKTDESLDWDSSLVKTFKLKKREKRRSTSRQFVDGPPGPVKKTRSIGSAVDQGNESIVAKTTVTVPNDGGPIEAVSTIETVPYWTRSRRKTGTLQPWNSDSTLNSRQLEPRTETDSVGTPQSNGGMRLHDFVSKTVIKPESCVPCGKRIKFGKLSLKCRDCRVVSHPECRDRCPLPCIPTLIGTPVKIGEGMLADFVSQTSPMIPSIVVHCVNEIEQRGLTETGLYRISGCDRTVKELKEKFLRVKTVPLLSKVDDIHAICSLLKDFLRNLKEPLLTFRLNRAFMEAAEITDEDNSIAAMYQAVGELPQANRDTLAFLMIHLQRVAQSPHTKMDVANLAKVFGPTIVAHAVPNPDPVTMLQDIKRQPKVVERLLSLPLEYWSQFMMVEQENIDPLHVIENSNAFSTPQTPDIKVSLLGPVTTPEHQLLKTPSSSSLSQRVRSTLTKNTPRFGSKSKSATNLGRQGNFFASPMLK

[16] = target: Eukaryotic translation initiation factor 4E (Mus musculus, UniProt P63073); test: eIF4E–eIF4G protein interaction inhibitors, dose response, biochemical, TR-FRET (AID 855); assay type: functional;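 also: potency for disrupting eIF4E binding to eIF4GI seen as loss of FRET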
[17] = inhibitors of intracellular T. cruzi replication, confirmation, NIH3T3 host cells, beta-gal luminescence (AID 2044); assay type: functional, cell-based;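 also: intracellular parasites grown in NIH/3T3 mouse fibroblasts as host cells; luminescent beta-galactosidase reporter signal from transgenic T. cruzi replicating inside host cells; inhibitors lower the luminescence signal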
[18] = cytotoxicity toward NIH3T3 fibroblasts, dose response, counter-screen, cell-based, ATP luminescence, mouse fibroblasts (AID 2010); assay type: functional;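 also: cells exposed to compound for about 90 hours before reading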
cells [19] = assay type: functional, cell-based
[20] = target: T7, Adenosylmethionine-8-amino-7-oxononanoate aminotransferase (Mycobacterium tuberculosis, UniProt P9WQ81); test: Mycobacterium tuberculosis BioA enzyme inhibitor Measured in Biochemical System Using Plate Reader - 2163-02_Inhibitor_Dose_CherryPick_Activity.; assay type: functional, Mycobacterium tuberculosis UT205
T7 sequence (P9WQ81 whole entry): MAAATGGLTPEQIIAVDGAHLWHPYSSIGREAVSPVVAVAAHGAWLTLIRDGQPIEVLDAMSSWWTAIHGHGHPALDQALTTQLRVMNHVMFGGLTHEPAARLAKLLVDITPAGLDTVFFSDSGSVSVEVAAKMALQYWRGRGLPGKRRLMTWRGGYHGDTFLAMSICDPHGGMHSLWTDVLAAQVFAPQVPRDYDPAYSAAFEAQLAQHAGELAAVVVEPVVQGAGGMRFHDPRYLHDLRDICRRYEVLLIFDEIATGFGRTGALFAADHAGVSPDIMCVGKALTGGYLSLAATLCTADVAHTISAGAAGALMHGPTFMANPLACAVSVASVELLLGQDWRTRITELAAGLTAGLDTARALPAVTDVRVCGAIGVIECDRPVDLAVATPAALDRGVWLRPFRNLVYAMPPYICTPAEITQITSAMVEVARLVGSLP

cells [21] = assay type: functional, cell-based; remark: listed apart in the source
cells [22] = assay type: functional, cell-based; remark: listed apart in the source

T1 sequence (P65502 whole entry): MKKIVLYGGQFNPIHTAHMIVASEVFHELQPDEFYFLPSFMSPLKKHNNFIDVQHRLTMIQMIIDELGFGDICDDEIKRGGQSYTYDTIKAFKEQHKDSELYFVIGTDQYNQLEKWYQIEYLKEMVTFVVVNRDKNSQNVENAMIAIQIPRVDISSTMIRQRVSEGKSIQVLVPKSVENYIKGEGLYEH
Eukaryotic translation initiation factor 4E, sequence (P63073 whole entry): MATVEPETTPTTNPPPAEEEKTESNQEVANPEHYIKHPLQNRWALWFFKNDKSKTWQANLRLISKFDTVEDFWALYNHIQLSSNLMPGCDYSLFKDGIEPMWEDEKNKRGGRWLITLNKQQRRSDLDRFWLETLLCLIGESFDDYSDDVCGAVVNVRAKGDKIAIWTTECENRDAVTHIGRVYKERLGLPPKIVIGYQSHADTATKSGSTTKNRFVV

## CCS(=O)(=O)Nc1cccc(-c2cc(-c3ccccc3)c3cc(C)ccc3n2)c1
[1]
  AC50: 4.3 µM (active)
[2]
  CC50: 12 µM (active)

## CC(C)n1c(=S)[nH]c2scc(-c3cccs3)c2c1=O
[3]
  IC50: 13.5 µM (active)
Vero
  CC50: > 40 µM (active)
[4]
  IC50: 18.2 µM (not active)
[5]
  IC50: 34 µM (active)

## CC(NC(=O)CC(c1ccccc1)c1cc(Cl)ccc1O)c1ccccc1 (configuration not stated)
[6]
  IC50: > 20 µM (inactive)
[7]
  EC50: > 53 µM (inactive)
[8]
  IC50: 13.1 µM (active)

## Cc1nn(-c2ccccc2)c(N)c1Sc1ccc([N+](=O)[O-])cc1
[6]
  IC50: 12.8 µM (active)
[7]
  EC50: > 53 µM (inactive)
[8]
  IC50: < 0.368 µM (active)

## COc1ccc(NC(=O)CN(C)C(=O)C2=COCCO2)cc1
[6]
  IC50: > 20 µM (inactive)
[7]
  EC50: > 53 µM (inactive)
[8]
  IC50: < 0.368 µM (active)

## CC1CCc2nc(N)c(C#N)c(-c3cccnc3)c2C1 (configuration not stated)
[9]
  EC50: 21.9 µM (active)
[10]
  EC50: 1.83 µM (active)
HEK293
  AC50: 9.95 µM (active)
[11]
  EC50: > 120 µM (not active)
[12]
  EC50: 7.72 µM (active)

## O=C(N/C(=C/c1ccc(Cl)cc1)c1nc2ccccc2[nH]1)c1ccco1
[13]
  IC50: > 100 µM (active)

## CN(C)CCCNc1ccc(-c2nnc(O)c3ccccc23)cc1[N+](=O)[O-]
[14]
  AC50: 20.5 µM (active)
H9c2
  IC50: 13.9 µM (active)

## COC(=O)C1CCN(C2CC(=O)N(c3cc(C)cc(C)c3)C2=O)CC1 (configuration not stated)
[1]
  AC50: 7.09 µM (active)

## COc1cc(C=C2C(=O)c3ccccc3C2=O)cc(OC)c1OC
[6]
  IC50: 1.46 µM (active)
[7]
  EC50: > 53 µM (inactive)
[15]
  IC50: 126 µM (active)
[8]
  IC50: 1.59 µM (active)

## CN1CCN(CCCNC(=O)c2ccc(/C=C3\Sc4ccccc4N(Cc4ccccc4F)C3=O)cc2)CC1
[14]
  AC50: 5.23 µM (active)
[16]
  IC50: 50 µM (inactive)
[17]
  EC50: 0.3 µM (active)
[18]
  EC50: 6.91 µM (active)

## O=C(Nc1ncc2c(n1)CC(c1ccco1)CC2=O)c1ccccc1 (configuration not stated)
Cells [19]
  EC50: > 350 µM (not active)
[20]
  AC50: 0.657 µM (active)

## O=C1CC(c2ccco2)CC(=O)C1=CNc1ccc(Br)cc1 (configuration not stated)
[13]
  IC50: > 100 µM (active)

## CCC(CO)Oc1cc(NC(=O)c2cccc(F)c2)c2ncn(C(C)C)c2c1 (configuration not stated)
[20]
  AC50: 5 µM (active)

## Cn1ncc2cc3c(Nc4ccc(Cl)cc4)cccc3nc21
[20]
  AC50: 5.67 µM (active)

## O=C(N[C@H]1CC[C@@H](CCn2cc(-c3cccnc3)nn2)O[C@@H]1CO)c1ccccc1F
[20]
  AC50: 11.7 µM (active)

## O=C(N[C@H](C(=O)N1CCC[C@H]1C(=O)NCCc1ccccc1Cl)c1ccccc1)c1cccs1
Cells [21]
  EC50: > 29.9 µM (inactive)
Cells [22]
  IC50: > 29.9 µM (inactive)

## COc1cc2c(cc1OC)CN1CCc3cc(OC)c(OC)cc3C1C2 (configuration not stated)
[14]
  AC50: 4.49 µM (active)

## O=C(O)CC/C(=N/Nc1ccc([N+](=O)[O-])cc1)C(=O)O
[1]
  AC50: 4.79 µM (active)
